Where “and” joins values, the source holds several entries; their conditions need not be identical. Equal values may be shown once. Read-outs that look alike come from different tables or passages of the source. Where no end group is shown, it is not given here.
Legend:
[1] = test system: fasted anesthetized rats; assay: Intravenous infusion of peptides in fasting anesthetized rats, plasma insulin; format: in vivo, rat; details: for plasma insulin level after infusion: 30 min i.v. infusion
[2] = target: T1, rat GIP receptor (Rattus norvegicus, UniProt P43219); assay: cAMP-dependent β-galactosidase production in LGIPR2 cells (agonist activity); format: cell-based; details: for β-gal level stimulated by peptide alone: FIG. 1B; for stimulation of cAMP-dependent β-galactosidase production (versus GIP (1–42) / above control levels): 10^−8 M peptide, 4 h
T1 construct: expressed in transfected cells; host or cells: L cells (LGIPR2), also carrying a VIP-promoter/lacZ cAMP reporter
T1 sequence (P43219 19-455): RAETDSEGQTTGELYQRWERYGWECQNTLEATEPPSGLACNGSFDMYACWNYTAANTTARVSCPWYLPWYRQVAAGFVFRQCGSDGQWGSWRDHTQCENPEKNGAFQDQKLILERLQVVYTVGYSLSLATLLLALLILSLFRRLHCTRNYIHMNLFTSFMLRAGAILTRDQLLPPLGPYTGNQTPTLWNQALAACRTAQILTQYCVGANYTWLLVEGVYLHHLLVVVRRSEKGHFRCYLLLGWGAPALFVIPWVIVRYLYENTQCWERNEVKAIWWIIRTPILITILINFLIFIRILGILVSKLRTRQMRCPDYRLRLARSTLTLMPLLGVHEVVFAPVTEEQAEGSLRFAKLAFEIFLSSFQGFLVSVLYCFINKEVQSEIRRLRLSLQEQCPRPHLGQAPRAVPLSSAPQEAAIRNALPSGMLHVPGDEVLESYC
Source text: LGIPR2 cells are stably transfected with a cAMP-dependent promoter from the VIP gene fused to the bacterial lac Z gene. When intracellular cAMP increases within these cells, lac Z gene transcription is activated, resulting in the accumulation of its product, β-galactosidase. The measurement of β-galactosidase in this system provided a convenient, inexpensive, and nonradioactive method for detecting changes in the levels of intracellular cAMP. […] The medium was then removed and wells rinsed once with phosphate-buffered saline (PBS). The plates were then blotted briefly and frozen overnight at −70° C., and, after the addition of chlorophenol red-β-D-galactopyranoside, accumulated β-galactosidase was detected using a calorimetric assay, as described previously (Usdin, et al., 1993, Endocrinology, 133:2861–2870). […] Natl. Acad. Sci. USA, 90:1992–1996).

[3] = target: T2, GIP receptor (Mus musculus, UniProt Q0P543); details: βTC3 cells; cited from earlier work
T2 construct: host or cells: βTC3 cells (endogenous receptor)
T2 sequence (Q0P543 19-460): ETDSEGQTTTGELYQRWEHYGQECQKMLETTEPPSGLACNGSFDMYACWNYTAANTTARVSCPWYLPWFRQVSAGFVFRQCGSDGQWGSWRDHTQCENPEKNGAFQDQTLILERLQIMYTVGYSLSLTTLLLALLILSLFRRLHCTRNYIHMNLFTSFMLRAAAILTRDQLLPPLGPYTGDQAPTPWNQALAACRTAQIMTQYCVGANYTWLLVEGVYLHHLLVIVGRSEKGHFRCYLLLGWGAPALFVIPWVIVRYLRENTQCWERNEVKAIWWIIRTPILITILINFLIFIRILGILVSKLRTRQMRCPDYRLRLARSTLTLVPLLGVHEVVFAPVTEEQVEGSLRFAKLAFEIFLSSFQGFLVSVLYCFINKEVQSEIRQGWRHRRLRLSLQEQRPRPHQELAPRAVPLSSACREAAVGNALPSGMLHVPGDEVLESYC

[4] = target: T1, rat GIP receptor; assay: Inhibition of GIP (1–42)-stimulated cAMP-dependent β-galactosidase production in LGIPR2 cells; format: cell-based; details: 10^−8 M GIP (1–42) plus fragment at 10^−8 M or 10^−6 M, 4 h
Procedure: LGIPR2 cells are stably transfected with a cAMP-dependent promoter from the VIP gene fused to the bacterial lac Z gene. When intracellular cAMP increases within these cells, lac Z gene transcription is activated, resulting in the accumulation of its product, β-galactosidase. The measurement of β-galactosidase in this system provided a convenient, inexpensive, and nonradioactive method for detecting changes in the levels of intracellular cAMP.
LGIPR2 cells were grown in Dulbecco's Modified Eagle's Medium (DMEM) containing 4.5 g/L of glucose and 10% fetal calf serum. For each assay, 10^5 cells/well were seeded onto 24-well plates. After incubation overnight, peptides were added in various concentrations to the wells in the absence of 3-isobutyl-methylxanthine (IBMX) for 4 h, at which time maximal stimulation of β-galactosidase was determined. The medium was then removed and wells rinsed once with phosphate-buffered saline (PBS). The plates were then blotted briefly and frozen overnight at −70° C., and, after the addition of chlorophenol red-β-D-galactopyranoside, accumulated β-galactosidase was detected using a calorimetric assay, as described previously (Usdin, et al., 1993, Endocrinology, 133:2861–2870).
Values are expressed as the mean±SE of quadruplicate measurements.

[5] = test system: rats; details: exendin-treated rats, cited from earlier work
[6] = test system: GIP receptor; details: cited from earlier work
[7] = in vivo; cited from earlier work

Molecule: CC[C@H](C)[C@H](NC(=O)[C@H](CO)NC(=O)[C@H](Cc1ccc(O)cc1)NC(=O)[C@H](CC(=O)O)NC(=O)[C@H](CO)NC(=O)[C@@H](NC(=O)[C@H](Cc1ccccc1)NC(=O)[C@@H](NC(=O)CNC(=O)[C@H](CCC(=O)O)NC(=O)[C@H](C)NC(=O)[C@@H](N)Cc1ccc(O)cc1)[C@@H](C)O)[C@@H](C)CC)C(=O)N[C@@H](C)C(=O)N[C@@H](CCSC)C(=O)N[C@@H](CC(=O)O)C(=O)N[C@@H](CCCCN)C(=O)N[C@H](C(=O)N[C@@H](CCCNC(=N)N)C(=O)N[C@@H](CCC(N)=O)C(=O)N[C@@H](CCC(N)=O)C(=O)N[C@@H](CC(=O)O)C(=O)N[C@@H](Cc1ccccc1)C(=O)N[C@H](C(=O)N[C@@H](CC(N)=O)C(=O)N[C@@H](Cc1c[nH]c2ccccc12)C(=O)N[C@@H](CC(C)C)C(=O)N[C@@H](CC(C)C)C(=O)N[C@@H](C)C(=O)N[C@@H](CCC(N)=O)C(=O)N[C@@H](CCCCN)C(=O)NCC(=O)N[C@@H](CCCCN)C(=O)N[C@@H](CCCCN)C(=O)N[C@@H](CC(N)=O)C(=O)N[C@@H](CC(=O)O)C(=O)N[C@@H](Cc1c[nH]c2ccccc12)C(=O)N[C@@H](CCCCN)C(=O)N[C@@H](Cc1c[nH]cn1)C(=O)N[C@@H](CC(N)=O)C(=O)N[C@@H](CC(C)C)C(=O)N[C@H](C(=O)N[C@@H](CCC(N)=O)C(=O)O)[C@@H](C)O)C(C)C)[C@@H](C)CC [GIP, glucose-dependent insulinotropic polypeptide]
- plasma insulin level after infusion ([1]; GIP 0.5 nmol/kg): 43.5±2.7 μIU/ml
- plasma insulin level after infusion ([1]; GIP 1.0 nmol/kg): 61.6±4.2 μIU/ml
- plasma insulin level after infusion ([1]; GIP 1.5 nmol/kg): 72.4±3.5 μIU/ml
- β-gal level stimulated by peptide alone [2]: 0.95±0.04 O.D.
- concentration giving maximum effect on β-galactosidase production ([2]; at 4 h): 10^−8 M

Molecule: CC[C@H](C)[C@H](NC(=O)[C@H](Cc1ccccc1)NC(=O)[C@H](CCC(=O)O)NC(=O)[C@H](CCCCN)NC(=O)[C@H](C)NC(=O)[C@H](C)NC(=O)[C@H](CCC(N)=O)NC(=O)CNC(=O)[C@H](CCC(=O)O)NC(=O)[C@H](CC(C)C)NC(=O)[C@H](Cc1ccc(O)cc1)NC(=O)[C@H](CO)NC(=O)[C@H](CO)NC(=O)[C@@H](NC(=O)[C@H](CC(=O)O)NC(=O)[C@H](CO)NC(=O)[C@@H](NC(=O)[C@H](Cc1ccccc1)NC(=O)[C@@H](NC(=O)CNC(=O)[C@H](CCC(=O)O)NC(=O)[C@H](C)NC(=O)[C@@H](N)Cc1c[nH]cn1)[C@@H](C)O)[C@@H](C)O)C(C)C)C(=O)N[C@@H](C)C(=O)N[C@@H](Cc1c[nH]c2ccccc12)C(=O)N[C@@H](CC(C)C)C(=O)N[C@H](C(=O)N[C@@H](CCCCN)C(=O)NCC(=O)N[C@@H](CCCNC(=N)N)C(N)=O)C(C)C [GLP-1, glucagon like peptide-1 (7–36)]
- plasma insulin level at 30 min ([1]; GLP-1 0.4 nmol/kg infusion): 50.3±3.7 μIU/ml

Molecule: N=C(N)NCCC[C@H](N)C(=O)O [arginine]
- plasma insulin level at 30 min ([1]; arginine 375 mg/kg infusion): 69.7±5.8 μIU/ml

Molecule: GIP (1–30)-NH2 (YAEGTFISDYSIAMDKIRQQDFVNWLLAQK-NH2; listed as Rattus norvegicus)
- stimulation of cAMP-dependent β-galactosidase production (versus GIP (1–42) / above control levels) [2]: nearly equipotent
- binding of GIP (1–42) to the GIP receptor [3]: competitively inhibited binding

Molecule: GIP (10–30)-NH2 (YSIAMDKIRQQDFVNWLLAQK-NH2; listed as Rattus norvegicus)
- antagonism of the cAMP stimulatory effect of GIP (1–42) [4]: an antagonist, albeit a weak one
- stimulation of cAMP-dependent β-galactosidase production (versus GIP (1–42) / above control levels) [2]: partial agonist activity
- β-gal level stimulated by peptide alone [2]: 0.39 O.D.

Molecule: GIP (16–30)-NH2 (KIRQQDFVNWLLAQK-NH2; listed as Rattus norvegicus)
- antagonism of the cAMP stimulatory effect of GIP (1–42) [4]: neither did they inhibit GIP-dependent effects
- stimulation of cAMP-dependent β-galactosidase production (versus GIP (1–42) / above control levels) [2]: did not mimic GIP and none

Molecule: GIP (21–30)-NH2 (DFVNWLLAQK-NH2)
- stimulation of cAMP-dependent β-galactosidase production (versus GIP (1–42) / above control levels) [2]: none

Molecule: GIP (31–44) (GKKNDWKHNLTQRE; listed as Rattus norvegicus)
- stimulation of cAMP-dependent β-galactosidase production (versus GIP (1–42) / above control levels) [2]: none

Molecule: exendin (9–39)
- plasma glucose level ([5]; increased from 7.5): 8.7 mmol/L
- reduction of postprandial insulin release [5]: 50% and 48%
- reduction of postprandial insulin release ([5]; listed as exendin): ~50%
- GIP binding to its receptor [6]: displaced GIP binding from its receptor
- cAMP generation in response to GIP stimulation [6]: inhibits cAMP generation
- reduction of insulin release following intraduodenal glucose infusion [7]: 70%

From patent publication US7091183B1 (Boston Medical Center Corporation, priority 1996, dated 2006)
